Data published in article PMC3005334 (Cell, 2010).

Columns and labels:
[1] = system: 21 ergosterol biosynthetic proteins (Erg proteins); details: of 21 Erg enzymes, above the control
Erg4 = Erg4 (Saccharomyces cerevisiae, UniProt P25340); assay type: binding; details: in vivo bound, LC-MS; natural synthesizing enzyme
Kin4 = molecular target: T1, Kin4 (Saccharomyces cerevisiae, UniProt Q01919); test: Affinity purification of tagged protein kinase and LC-MS of bound metabolites; assay type: binding; details: 379.337 amu at 10.98 min
T1 sequence (Q01919 1-800): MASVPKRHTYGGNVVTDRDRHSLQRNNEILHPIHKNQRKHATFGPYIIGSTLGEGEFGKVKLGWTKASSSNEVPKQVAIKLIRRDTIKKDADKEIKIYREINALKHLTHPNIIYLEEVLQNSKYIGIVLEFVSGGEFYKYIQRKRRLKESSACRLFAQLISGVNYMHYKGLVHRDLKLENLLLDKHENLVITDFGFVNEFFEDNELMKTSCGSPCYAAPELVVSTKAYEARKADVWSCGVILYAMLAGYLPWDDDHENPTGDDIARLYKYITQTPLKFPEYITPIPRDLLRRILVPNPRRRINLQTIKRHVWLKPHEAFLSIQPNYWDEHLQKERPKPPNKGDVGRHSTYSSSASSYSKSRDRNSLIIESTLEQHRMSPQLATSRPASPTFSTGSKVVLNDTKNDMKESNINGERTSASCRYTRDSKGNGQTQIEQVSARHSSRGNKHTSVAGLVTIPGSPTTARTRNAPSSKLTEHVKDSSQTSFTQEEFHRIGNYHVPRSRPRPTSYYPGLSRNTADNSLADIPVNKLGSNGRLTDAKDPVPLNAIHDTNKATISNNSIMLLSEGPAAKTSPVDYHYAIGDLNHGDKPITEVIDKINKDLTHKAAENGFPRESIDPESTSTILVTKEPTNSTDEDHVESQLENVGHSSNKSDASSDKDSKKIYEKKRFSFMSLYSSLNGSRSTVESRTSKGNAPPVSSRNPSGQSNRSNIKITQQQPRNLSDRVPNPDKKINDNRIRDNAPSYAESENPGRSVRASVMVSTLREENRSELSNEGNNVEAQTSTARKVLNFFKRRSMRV

Ypk1, Hal5, and Rck2 = test: In vitro small metabolite-protein binding assay; set-up: species or system Saccharomyces cerevisiae; details: fixed amount of protein; indicates specific binding
[2] = system: Atg1, Psk2 and denatured Ypk1; test: In vitro small metabolite-protein binding assay; set-up: species or system Saccharomyces cerevisiae; details: denatured protein or control proteins; indicates non-specific adsorption
Hmg1 = molecular target: T2, Hmg1 (Saccharomyces cerevisiae, UniProt P12683); assay type: binding; details: probably low level of protein in the preparation
T2 sequence (P12683 1-1054): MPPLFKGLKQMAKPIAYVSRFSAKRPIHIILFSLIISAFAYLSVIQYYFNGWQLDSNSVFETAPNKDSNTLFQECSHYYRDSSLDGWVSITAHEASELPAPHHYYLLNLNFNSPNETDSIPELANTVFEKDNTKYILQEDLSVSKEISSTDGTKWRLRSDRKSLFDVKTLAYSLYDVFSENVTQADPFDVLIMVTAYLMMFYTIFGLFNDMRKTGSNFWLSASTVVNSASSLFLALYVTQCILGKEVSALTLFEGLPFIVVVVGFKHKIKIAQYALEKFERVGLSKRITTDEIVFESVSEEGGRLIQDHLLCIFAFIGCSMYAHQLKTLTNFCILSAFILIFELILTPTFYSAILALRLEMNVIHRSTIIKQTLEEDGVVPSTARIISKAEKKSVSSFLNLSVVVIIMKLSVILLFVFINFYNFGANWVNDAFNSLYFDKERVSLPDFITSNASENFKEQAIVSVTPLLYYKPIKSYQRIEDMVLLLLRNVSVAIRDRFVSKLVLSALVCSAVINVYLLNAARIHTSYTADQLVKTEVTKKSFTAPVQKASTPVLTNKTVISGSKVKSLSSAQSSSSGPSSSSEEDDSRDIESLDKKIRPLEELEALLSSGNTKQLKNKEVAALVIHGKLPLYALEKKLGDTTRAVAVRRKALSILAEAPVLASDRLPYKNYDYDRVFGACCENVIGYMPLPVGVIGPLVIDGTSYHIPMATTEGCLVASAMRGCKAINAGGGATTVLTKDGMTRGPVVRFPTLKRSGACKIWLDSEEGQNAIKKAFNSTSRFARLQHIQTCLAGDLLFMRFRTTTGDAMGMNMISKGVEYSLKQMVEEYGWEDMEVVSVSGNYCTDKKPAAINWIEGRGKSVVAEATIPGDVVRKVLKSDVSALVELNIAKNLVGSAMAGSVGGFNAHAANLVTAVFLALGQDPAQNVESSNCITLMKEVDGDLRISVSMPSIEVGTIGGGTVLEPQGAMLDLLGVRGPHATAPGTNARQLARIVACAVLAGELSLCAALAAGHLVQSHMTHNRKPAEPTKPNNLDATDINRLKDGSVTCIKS

Ypk1 = molecular target: T3, Ypk1 (Saccharomyces cerevisiae, UniProt P12688); test: In vitro kinase activity assay; assay type: biochemical
T3 sequence (P12688 1-680): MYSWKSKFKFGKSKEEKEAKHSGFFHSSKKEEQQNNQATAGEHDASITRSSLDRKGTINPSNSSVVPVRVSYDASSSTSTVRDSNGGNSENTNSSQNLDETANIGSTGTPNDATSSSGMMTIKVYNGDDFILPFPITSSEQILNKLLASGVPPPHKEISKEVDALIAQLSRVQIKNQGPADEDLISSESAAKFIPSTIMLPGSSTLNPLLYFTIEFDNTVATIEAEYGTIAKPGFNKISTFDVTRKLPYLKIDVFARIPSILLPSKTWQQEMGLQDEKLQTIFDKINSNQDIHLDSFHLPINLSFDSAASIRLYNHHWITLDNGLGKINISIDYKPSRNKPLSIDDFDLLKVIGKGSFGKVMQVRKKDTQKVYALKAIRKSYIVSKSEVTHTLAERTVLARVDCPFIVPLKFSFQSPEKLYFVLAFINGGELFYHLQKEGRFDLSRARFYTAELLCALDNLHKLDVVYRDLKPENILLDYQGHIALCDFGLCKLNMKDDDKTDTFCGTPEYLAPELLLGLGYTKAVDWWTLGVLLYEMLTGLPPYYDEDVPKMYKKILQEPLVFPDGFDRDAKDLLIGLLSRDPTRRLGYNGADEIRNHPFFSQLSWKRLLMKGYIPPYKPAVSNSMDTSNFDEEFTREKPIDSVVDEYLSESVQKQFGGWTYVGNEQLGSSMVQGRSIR

103 protein kinases = test: Affinity purification LC-MS profiling of the panel of yeast protein kinases; assay type: binding, Saccharomyces cerevisiae; details: of 103 kinases analyzed

Sequence of Erg4 (P25340 whole entry): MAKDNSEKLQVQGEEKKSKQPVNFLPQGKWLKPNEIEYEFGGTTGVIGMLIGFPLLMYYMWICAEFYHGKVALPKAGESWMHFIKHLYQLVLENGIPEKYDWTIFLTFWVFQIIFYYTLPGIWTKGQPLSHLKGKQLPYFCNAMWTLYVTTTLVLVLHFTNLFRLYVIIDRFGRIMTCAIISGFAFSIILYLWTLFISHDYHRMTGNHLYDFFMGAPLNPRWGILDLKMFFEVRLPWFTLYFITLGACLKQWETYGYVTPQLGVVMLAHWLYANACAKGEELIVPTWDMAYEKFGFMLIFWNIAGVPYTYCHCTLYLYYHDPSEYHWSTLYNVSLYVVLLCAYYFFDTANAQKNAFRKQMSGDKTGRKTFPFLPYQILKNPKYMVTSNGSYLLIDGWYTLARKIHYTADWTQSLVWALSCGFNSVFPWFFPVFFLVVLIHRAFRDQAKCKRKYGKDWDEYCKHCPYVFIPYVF

CC(C)[C@@H](C)/C=C/[C@@H](C)[C@H]1CC[C@H]2C3=CC=C4C[C@@H](O)CC[C@]4(C)[C@H]3CC[C@]12C [ergosterol]
number of Erg proteins the metabolite co-purified with [1]: 5 | binding to Erg4 (Erg4): bound | binding to Kin4 (Kin4): specific binding | shape of binding curve over increasing free ergosterol (Ypk1, Hal5, and Rck2): saturable curve | shape of binding curve over increasing free ergosterol [2]: close to linear | detection with Hmg1 (Hmg1): not detected | Ypk1 in vitro kinase activity with increasing concentrations of ergosterol (Ypk1; Ypk1 from erg4Δ strain lacking ergosterol): could not be stimulated | Ypk1 in vitro kinase activity with increasing concentrations of ergosterol (Ypk1; Ypk1 from wild type cells grown in the presence of 0.4 mM ergosterol): could be stimulated to a similar extent | number of protein kinases associated with the metabolite (103 protein kinases): 15
